Experimental data published in patent US20240018157A1, “CYCLIC COMPOUNDS AND METHODS OF USING SAME” (Schrödinger, Inc., priority 2019, published 2024).

Tests used:
[1] = molecular target: T1, full-length MALT1 protein His-MALT1(1-824) (Homo sapiens (Human), UniProt Q9UDY8); assay: MALT1 protease assay, Assay 1 (2 nM MALT1, Ac-LRSR-AMC substrate); assay type: biochemical; details: 2 nM MALT1, 50 μM Ac-LRSR-AMC, 2 h pre-incubation, 8 hr incubation at RT
Protocol: MALT1 protease activity was assessed in an in vitro assay using a tetrapeptide as substrate and full-length MALT1 protein His-MALT1(1-824) purified from baculovirus-infected insect cells.
The final assay buffer includes 1 nM (Assay 2) or 2 nM (Assay 1) of MALT1 full-length protein, 50 μM Ac-LRSR-AMC substrate, 50 mM Tris pH 7.5, 600 mM Sodium Citrate, 1 mM DTT, 1 mM EDTA, and 0.05% BSA in 384-well plate format using black microtiter square well plates (Optiplate 384-F, Perkin Elmer).
Test compounds were dissolved in 100% DMSO at stock of 10 mM, with final DMSO concentration 0.1%. Test compounds were pre-incubated with MALT1 protein for 2 h at room temperature. Substrate was added after the pre-incubation and fluorescence signal was measured using Envision at excitation 355 nm and emission 460 nm after 8 hr incubation at RT. Increase in the assay signal was linear over this period and proportional with increase in the enzyme content.
The fluorescence units were transformed to percentage of remaining activity by using the high control (HC, median of fluorescence signal from wells containing MALT1 protein, substrate, and DMSO) and low control (LC, median of fluorescence signal from wells with substrate only) with the formula below: […]
IC50 and Hill coefficient were obtained using Graph Pad Prism (Graph Pad software, Inc, USA) with non-linear regression analysis.

[2] = test system: IL10 secretion, OCI-LY10 cells; assay: Human IL10 secretion assay, Assay 1 (HTRF); assay type: cell-based; details: 24 h incubation, read-out: IL-10 Secretion IC50 [nM] Assay 1
Method in brief: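 OCI-LY10 cells (3×10^5/well, IMEM with 20% FBS) were treated with 3-fold serial compound dilutions from a 10 mM stock, 0.1% DMSO final, for 24 h. Secreted IL10 in medium was quantified by HTRF, normalised to DMSO-treated and no-cell controls, and IC50 (nM) derived by 4-parameter fit.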

[3] = molecular target: T1, full-length MALT1 protein His-MALT1(1-824); assay: MALT1 protease assay, Assay 2 (1 nM MALT1, Ac-LRSR-AMC substrate); assay type: biochemical; details: 1 nM MALT1, 50 μM Ac-LRSR-AMC, 2 h pre-incubation, 8 hr incubation at RT
Method in brief: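 His-MALT1(1-824) from baculovirus-infected insect cells at 1 nM, preincubated 2 h at RT with compound (0.1% DMSO), then 50 μM Ac-LRSR-AMC in 50 mM Tris pH 7.5, 600 mM sodium citrate, 1 mM DTT, 1 mM EDTA, 0.05% BSA. Fluorescence (ex 355/em 460 nm) after 8 h at RT, normalized to enzyme and substrate-only controls. IC50 and Hill coefficient by non-linear regression.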

T1 sequence (Q9UDY8 whole entry): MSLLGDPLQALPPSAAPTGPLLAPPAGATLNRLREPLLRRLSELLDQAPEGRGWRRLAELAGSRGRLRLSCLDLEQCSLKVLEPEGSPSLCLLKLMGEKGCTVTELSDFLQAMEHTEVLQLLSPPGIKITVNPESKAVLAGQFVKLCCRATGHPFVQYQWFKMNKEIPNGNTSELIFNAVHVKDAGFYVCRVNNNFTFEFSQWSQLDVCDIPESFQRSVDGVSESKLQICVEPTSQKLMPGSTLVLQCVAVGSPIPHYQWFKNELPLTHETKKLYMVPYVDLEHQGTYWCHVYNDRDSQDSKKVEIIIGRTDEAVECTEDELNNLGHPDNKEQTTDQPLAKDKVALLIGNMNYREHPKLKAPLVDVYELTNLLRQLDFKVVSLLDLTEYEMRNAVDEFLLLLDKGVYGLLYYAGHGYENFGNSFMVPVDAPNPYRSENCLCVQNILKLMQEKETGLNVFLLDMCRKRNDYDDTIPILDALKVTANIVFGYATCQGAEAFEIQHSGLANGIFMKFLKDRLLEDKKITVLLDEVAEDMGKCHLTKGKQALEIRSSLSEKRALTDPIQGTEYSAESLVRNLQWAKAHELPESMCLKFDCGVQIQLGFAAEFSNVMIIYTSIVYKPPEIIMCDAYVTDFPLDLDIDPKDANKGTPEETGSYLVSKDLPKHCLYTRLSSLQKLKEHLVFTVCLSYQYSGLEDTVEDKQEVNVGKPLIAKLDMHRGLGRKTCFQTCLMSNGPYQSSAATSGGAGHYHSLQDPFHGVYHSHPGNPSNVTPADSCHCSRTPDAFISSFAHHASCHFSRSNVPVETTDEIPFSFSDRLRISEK

| SMILES | IC50 [1] [nM] | IC50 [2] [nM] | IC50 [3] [nM] |
| --- | --- | --- | --- |
| C[C@@]1(C(F)(F)F)CN(C(=O)Nc2cnc(CO)c(Cl)c2)c2cnc3cc(Cl)nn3c21 [compound 43, (R)-2-chloro-N-(5-chloro-6-(hydroxymethyl)pyridin-3-yl)-8-methyl-8-(trifluoromethyl)-7,8-dihydro-6H-pyrazolo[1,5-a]pyrrolo[2,3-e]pyrimidine-6-carboxamide] | 10 to 100 | 100 to 1000 | – |
| C[C@@]1(C(F)(F)F)CN(C(=O)Nc2cnc(C#N)c(Cl)c2)c2cnc3cc(Cl)nn3c21 [compound 42, (R)-2-chloro-N-(5-chloro-6-cyanopyridin-3-yl)-8-methyl-8-(trifluoromethyl)-7,8-dihydro-6H-pyrazolo[1,5-a]pyrrolo[2,3-e]pyrimidine-6-carboxamide] | 10 to 100 | 100 to 1000 | 10 to 100 |
| Cc1cc2ncc3c(n2n1)C(C)(C)CCN3C(=O)Nc1cnc(-n2nccn2)c(Cl)c1 [compound 8, N-(5-chloro-6-(2H-1,2,3-triazol-2-yl)pyridin-3-yl)-2,9,9-trimethyl-8,9-dihydropyrazolo[1,5-a]pyrido[2,3-e]pyrimidine-6(7H)-carboxamide] | 10 to 100 | 100 to 1000 | – |
| CC1(C)CCN(C(=O)Nc2cnc(-n3nccn3)c(Cl)c2)c2ccc3cc(Cl)nn3c21 [compound 9, 2-chloro-N-(5-chloro-6-(2H-1,2,3-triazol-2-yl)pyridin-3-yl)-9,9-dimethyl-8,9-dihydropyrazolo[1,5-a][1,5]naphthyridine-6(7H)-carboxamide] | 10 to 100 | ≥ 1000 | – |
| Cn1cc(-c2ncc(NC(=O)N3C[C@@](C)(C(F)(F)F)c4c3cnc3cc(Cl)nn43)cc2Cl)cn1 [compound 20, (R)-2-chloro-N-(5-chloro-6-(1-methyl-1H-pyrazol-4-yl)pyridin-3-yl)-8-methyl-8-(trifluoromethyl)-7,8-dihydro-6H-pyrazolo[1,5-a]pyrrolo[2,3-e]pyrimidine-6-carboxamide] | 10 to 100 | 100 to 1000 | – |
| C[C@@]1(C(F)(F)F)CN(C(=O)Nc2cc(Cl)c(=O)n(C(F)F)c2)c2cnc3cc(Cl)nn3c21 [compound 50, (R)-2-chloro-N-(5-chloro-1-(difluoromethyl)-6-oxo-1,6-dihydropyridin-3-yl)-8-methyl-8-(trifluoromethyl)-7,8-dihydro-6H-pyrazolo[1,5-a]pyrrolo[2,3-e]pyrimidine-6-carboxamide] | 10 to 100 | – | – |
| C[C@@]1(C(F)(F)F)CN(C(=O)NC2CCC(F)(F)CC2)c2cnc3cc(Cl)nn3c21 [compound 37, (R)-2-chloro-N-(4,4-difluorocyclohexyl)-8-methyl-8-(trifluoromethyl)-7,8-dihydro-6H-pyrazolo[1,5-a]pyrrolo[2,3-e]pyrimidine-6-carboxamide] | 100 to 1000 | – | 100 to 1000 |
| COc1nc(-n2nccn2)c(Cl)cc1NC(=O)N1C[C@@](C)(C(F)(F)F)c2c1cnc1cc(Cl)nn21 [compound 52, (R)-2-chloro-N-(5-chloro-2-methoxy-6-(2H-1,2,3-triazol-2-yl)pyridin-3-yl)-8-methyl-8-(trifluoromethyl)-7,8-dihydro-6H-pyrazolo[1,5-a]pyrrolo[2,3-e]pyrimidine-6-carboxamide] | < 10 | 10 to 100 | – |
